US10928382B2, “Microfluidic device and method for analysis of tumor cell microenvironments” (Northeastern University, priority 2014, dated 2021)

Key:
[1] = tested on: adriamycin sensitive MCF7 cells; assay: LIVE/DEAD viability/cytotoxicity assay, adriamycin sensitive MCF7 cell spheroids in microfluidic device (compared with 2D monolayers); assay type: cell-based
Method: FIGS. 6A and 6B show adriamycin resistant MCF7 cell spheroids at 96 hr incubation without doxorubicin (FIG. 6A) and at 48 hr incubation with 12.8 μM doxorubicin (FIG. 6B). […] FIGS. 6C and 6D show adriamycin sensitive MCF7 cell spheroids at 96 hr incubation without doxorubicin (FIG. 6C) and at 48 hr incubation with 12.8 μM doxorubicin (FIG. 6D).

[2] = tested on: co-cultured MCF7 and HS5 cells; assay: LIVE/DEAD viability assay, co-cultured MCF7 and HS5 fibroblast cell spheroids in microfluidic device; assay type: cell-based; details: 3D spheroids, doxorubicin 3200 nM and 12800 nM, FIG. 7D
[3] = tested on: adriamycin resistant MCF7 cells; assay: LIVE/DEAD viability/cytotoxicity assay, adriamycin resistant MCF7 cell spheroids in microfluidic device (compared with 2D monolayers)
[4] = 3D spheroids, doxorubicin 800 nM to 12800 nM, FIG. 7C

COc1cccc2c1C(=O)c1c(O)c3c(c(O)c1C2=O)C[C@@](O)(C(=O)CO)C[C@@H]3O[C@H]1C[C@H](N)[C@H](O)[C@H](C)O1 [doxorubicin]
susceptibility to doxorubicin (red fluorescent nuclei staining) versus adriamycin resistant cells ([1]; 3D spheroids, 12.8 μM doxorubicin, 48 hr incubation, FIG. 6D vs 6B): more susceptible to doxorubicin than the adriamycin resistant cells | survival rate in spheroids [1, 4]: high and comparable survival rates | cell viability, 2D monolayers versus 3D spheroids ([1]; doxorubicin 1600 nM to 12800 nM, p<0.05, FIG. 7B): statistically significant difference in cell viability | overall cell survival rate in response to doxorubicin, with fibroblasts versus MCF7 adriamycin sensitive spheroids alone [2]: significant increase in the overall cell survival rate | cell viability, 2D monolayers versus 3D spheroids ([3]; 12.8 μM doxorubicin, p<0.05, cells more susceptible in 2D than 3D, FIG. 7A): statistically significant difference in cell viability | cell toxicity (red fluorescence, LIVE/DEAD assay) ([3]; 3D spheroids, 12.8 μM doxorubicin, 48 hr incubation, FIG. 6B): cell toxicity | survival rate in spheroids [3, 4]: high and comparable survival rates
